Data taken from patent US20260069584A1, “METHODS OF TREATING CHRONIC MYELOID LEUKEMIA USING THE TYROSINE KINASE INHIBITOR VODOBATINIB” (Sun Pharma Advanced Research Company Ltd., priority 2022, published 2026).

Tested on: CP CML
Assay: Part B: disease response in CP CML subjects
Assay type: in vivo, human
Details: for Complete Molecular Response, Best Response / Complete cytogenetic response, Best Response / Cytogenetic response: Minimal response, Best Response / Cytogenetic response: Minor response, Best Response / Cytogenetic response: No response, Best Response / Hematological response: CHR, Best Response / Hematological response: No response, Best Response / Major cytogenetic response, Best Response / Major molecular response, Best Response / Molecular response: No response, Best Response / Partial cytogenetic response, Best Response: number of patients
Text: This was a Phase I/2, open-label, single-agent, multicenter, multi-dose, dose-escalation study in subjects with Philadelphia chromosome-positive Ph+ CML (CP CML, AP CML and BP CML) and Ph+ ALL. The primary objectives of this study were to determine the maximum tolerated dose (MTD; or recommended Phase 2 dose [RP2D]) of the compound of Formula I when administered orally and to evaluate its safety.
In this study, the dose-escalation cohort started with an accelerated titration study design (ATD) and shifted to a 3±3 design when subjects in the preceding ATD cohort experienced either grade 2 or higher adverse events (AEs) or dose-limiting toxicity (DLT) during Cycle 1 that was not clearly and incontrovertibly related to the underlying disease or concomitant medications. The DLT period consisted of 28 days (Cycle 1). Subjects experiencing DLTs were managed with dose delays and/or discontinuation and continued in the study until disease progression. Decisions to advance to a succeeding dose level occurred after the evaluation of safety and tolerability data for a given dose level.
Accordingly, the eligible subjects were treated in 4-week cycles of once daily self-administration of the compound of Formula I. The administration was after an overnight fast, or after maintaining approximately 2 hours of fasting before and after the dosing in all cycles.
For the cohorts, where the 3±3 design applies, 3 subjects were enrolled initially. If 2 of these subjects experienced a Grade 2 or more toxicity (that was not clearly and incontrovertibly related to the underlying disease or concomitant medications), subsequent cohorts were escalated according to smaller increments. Further, if there were no DLTs in the first 3 subjects, dose escalation to the next higher dose level was allowed to proceed. If 1 of the 3 subjects experienced a DLT, that dose level was expanded to 6 subjects (3 additional subjects were enrolled). If 2 subjects at a given dose level experienced a DLT, the MTD was considered to have been exceeded. The next lower dose level was expanded to 6 subjects, or if 6 subjects had already been enrolled and no more than 1 of the 6 subjects experienced a DLT, then this lower dose level was considered the MTD. Additional subjects were enrolled in dose escalation cohorts for further assessment of safety and efficacy of the compound of Formula 1 at doses that were tolerated (i.e., doses that have <2 DLTs in 6 enrolled subjects or <1 DLT in 3 enrolled subjects). Thus 204 mg was arrived at as MTD. A subject experiencing a DLT was allowed to continue therapy with a reduced dose. Subjects who experienced a DLT and recovered were treated at the next lower dose level until disease progression or other events requiring further dose reduction existed. For cohorts at Dose Level 2 or higher, a further dose reduction (i.e., up to 2 levels lower than their originally assigned dose) was implemented in the case of a further DLT or other non-DLT events requiring a dose reduction, if and when the event leading to dose reduction returned to Grade 1 or lower in severity. The reduced dose was re-escalated to the original or higher dose (i.e., the dose for which safety had been established in the dose escalation cohort) considering subject safety and response to the compound of Formula I. The subject was discontinued from treatment using the compound of Formula I, if dose reduction below 48 mg was required.
The study was conducted over a period of 60 months (5 years) which was divided in 28-days cycle. In the first two cycles, the dose administration was started on day 1 and the subject's assessments were performed on day 1, day 2, day 3, day 8, day 15 and day 22. From Cycle 3 onwards, the assessments were performed every 3 months (i.e., on day 28 of Cycle 3, followed by day 28 of Cycle 6 which was further followed by day 28 of Cycle 9). […]

[1] = 16 CP CML patients with prior ponatinib
[2] = prior ponatinib, 48 mg (N = 1) ESC
[3] = prior ponatinib, 66 mg (N = 2) ESC
[4] = prior ponatinib, 90 mg (N = 2) ESC
[5] = prior ponatinib, 126 mg (N = 1) ESC
[6] = prior ponatinib, 174 mg (N = 5) ESC
[7] = prior ponatinib, 204 mg (N = 3) ESC
[8] = prior ponatinib, 240 mg (N = 2) ESC

Structure (SMILES): Cc1ccc(C(=O)NNC(=O)c2c(C)cccc2Cl)cc1C#Cc1cnc2ccccc2c1 [compound of Formula I, N′-(2-chloro-6-methylbenzoyl)-4-methyl-3-[2-(3-quinolyl)ethynyl]-benzohydrazide]
- Best Hematologic Response: No Response (204 mg (N = 6) ESC): 0
- Best Molecular Response: Complete Response (204 mg (N = 6) ESC): 1(16.7)
- Best Molecular Response: Major Response (204 mg (N = 6) ESC): 3(50.0)
- Best Molecular Response: No Response (204 mg (N = 6) ESC): 3(50.0)
- Best Cytogenetic Response: Complete Response (240 mg (N = 3) ESC): 3(100)
- Best Cytogenetic Response: Major Cytogenetic Response (240 mg (N = 3) ESC): 3(100)
- Best Cytogenetic Response: Minimal Response (240 mg (N = 3) ESC): 0
- Best Cytogenetic Response: Minor Response (240 mg (N = 3) ESC): 0
- Best Cytogenetic Response: No Response (240 mg (N = 3) ESC): 0
- Best Cytogenetic Response: Partial Response (240 mg (N = 3) ESC): 0
- Best Hematologic Response: Complete Response (240 mg (N = 3) ESC): 2(66.7)
- Best Hematologic Response: Major Hematologic Response (240 mg (N = 3) ESC): 2(66.7)
- Best Hematologic Response: No Evidence of Leukemia (240 mg (N = 3) ESC): 0
- Best Hematologic Response: No Response (240 mg (N = 3) ESC): 0
- Best Molecular Response: Complete Response (240 mg (N = 3) ESC): 1(33.3)
- Best Molecular Response: Major Response (240 mg (N = 3) ESC): 3(100)
- Best Molecular Response: No Response (240 mg (N = 3) ESC): 0
- MMR achieved (8 patients out of 17, prior ponatinib): 47%
- Major Cytogenetic Response (MCyR, both PCyR+ CCyR) (11 of 16 CP CML patients with prior ponatinib): 68.8%
- Achieved MCyR [1]: 6 patients
- Maintained MCyR [1]: 5 patients
- Complete Molecular Response, Best Response (ASC (N = 3)): 0
- Complete cytogenetic response, Best Response (ASC (N = 3)): 1
- Cytogenetic response: Minimal response, Best Response (ASC (N = 3)): 0
- Cytogenetic response: Minor response, Best Response (ASC (N = 3)): 1
- Cytogenetic response: No response, Best Response (ASC (N = 3)): 1
- Hematological response: CHR, Best Response (ASC (N = 3)): 3
- Hematological response: No response, Best Response (ASC (N = 3)): 0
- Major cytogenetic response, Best Response (ASC (N = 3)): 1
- Major molecular response, Best Response (ASC (N = 3)): 0
- Molecular response: No response, Best Response (ASC (N = 3)): 3
- Partial cytogenetic response, Best Response (ASC (N = 3)): 0
- Complete Molecular Response, Best Response (PON (N = 15)): 4
- Complete cytogenetic response, Best Response (PON (N = 15)): 7
- Cytogenetic response: Minimal response, Best Response (PON (N = 15)): 1
- Cytogenetic response: Minor response, Best Response (PON (N = 15)): 1
- Cytogenetic response: No response, Best Response (PON (N = 15)): 2
- Hematological response: CHR, Best Response (PON (N = 15)): 12
- Hematological response: No response, Best Response (PON (N = 15)): 3
- Major cytogenetic response, Best Response (PON (N = 15)): 10
- Major molecular response, Best Response (PON (N = 15)): 8
- Molecular response: No response, Best Response (PON (N = 15)): 7
- Partial cytogenetic response, Best Response (PON (N = 15)): 3
- Best Cytogenetic Response: Complete Response (Total (N = 30) ESC): 17(56.7)
- Best Cytogenetic Response: Major Cytogenetic Response (Total (N = 30) ESC): 20(66.7)
- Best Cytogenetic Response: Minimal Response (Total (N = 30) ESC): 4(13.3)
- Best Cytogenetic Response: Minor Response (Total (N = 30) ESC): 1(3.3)
- Best Cytogenetic Response: No Response (Total (N = 30) ESC): 3(10.0)
- Best Cytogenetic Response: Partial Response (Total (N = 30) ESC): 3(10.0)
- Best Hematologic Response: Complete Response (Total (N = 30) ESC): 24(80.0)
- Best Hematologic Response: Major Hematologic Response (Total (N = 30) ESC): 24(80.0)
- Best Hematologic Response: No Evidence of Leukemia (Total (N = 30) ESC): 0
- Best Hematologic Response: No Response (Total (N = 30) ESC): 4(13.3)
- Best Molecular Response: Complete Response (Total (N = 30) ESC): 7(23.3)
- Best Molecular Response: Major Response (Total (N = 30) ESC): 14(46.7)
- Best Molecular Response: No Response (Total (N = 30) ESC): 14(46.7)
- CCyR as best response (more than 3 prior TKIs including ponatinib): 46.7%
- CCyR as best response (more than 3 prior TKIs including ponatinib and asciminib): 33.3%
- Major cytogenetic response as best response (ponatinib group): 66.7%
- Major cytogenetic response as best response (ponatinib plus asciminib group): 33.3%
- Achieved MCyR [2]: 0
- Achieved MMR [2]: 1(100)
- MCyR [2]: 1(100)
- Maintained MCyR [2]: 1(100)
- Maintained MMR [2]: 0
- Achieved MCyR [3]: 1(50.0)
- Achieved MMR [3]: 0
- MCyR [3]: 1(50.0)
- Maintained MCyR [3]: 0
- Maintained MMR [3]: 0
- Achieved MCyR [4]: 1(50.0)
- Achieved MMR [4]: 1(50.0)
- MCyR [4]: 1(50.0)
- Maintained MCyR [4]: 0
- Maintained MMR [4]: 0
- Achieved MCyR [5]: 0
- Achieved MMR [5]: 0
- MCyR [5]: 0
- Maintained MCyR [5]: 0
- Maintained MMR [5]: 0
- Achieved MCyR [6]: 1(20.0)
- Achieved MMR [6]: 3(60.0)
- MCyR [6]: 3(60.0)
- Maintained MCyR [6]: 2(40.0)
- Maintained MMR [6]: 0
- Achieved MCyR [7]: 2(66.7)
- Achieved MMR [7]: 1(33.3)
- MCyR [7]: 3(100)
- Maintained MCyR [7]: 1(33.3)
- Maintained MMR [7]: 0
- Achieved MCyR [8]: 1(50.0)
- Achieved MMR [8]: 2(100)
- MCyR [8]: 2(100)
- Maintained MCyR [8]: 1(50.0)
- Maintained MMR [8]: 0
- Achieved MCyR (prior ponatinib, Total ESC): 6(37.5)
- Achieved MMR (prior ponatinib, Total ESC): 8(50.0)
- MCyR (prior ponatinib, Total ESC): 11(68.8)
- Maintained MCyR (prior ponatinib, Total ESC): 5(31.3)
- Maintained MMR (prior ponatinib, Total ESC): 0
